Laboratory results published in PMC8087159 (Bioconjugate chemistry, 2021).
Entries after “also recorded” stand apart in the source; their conditions may differ. Read-outs that look alike come from different tables or passages of the source.

Assays:
ARPE19 cells = assay: ARPE19 cell uptake; assay type: in vitro ADME, human; details: 10 μM, 16 h; compared with Ret-NH2
RPE65 [1] = target: RPE65 (Bos taurus, UniProt Q28175); assay: RPE microsome retinoid isomerase assay; assay type: biochemical, Bovine; details: RPE microsomes, 0.5–10 μM compound, 10 μM all-trans-retinol, 1 h
RPE65 (Bos taurus, UniProt Q28175), sequence (Q28175 whole entry): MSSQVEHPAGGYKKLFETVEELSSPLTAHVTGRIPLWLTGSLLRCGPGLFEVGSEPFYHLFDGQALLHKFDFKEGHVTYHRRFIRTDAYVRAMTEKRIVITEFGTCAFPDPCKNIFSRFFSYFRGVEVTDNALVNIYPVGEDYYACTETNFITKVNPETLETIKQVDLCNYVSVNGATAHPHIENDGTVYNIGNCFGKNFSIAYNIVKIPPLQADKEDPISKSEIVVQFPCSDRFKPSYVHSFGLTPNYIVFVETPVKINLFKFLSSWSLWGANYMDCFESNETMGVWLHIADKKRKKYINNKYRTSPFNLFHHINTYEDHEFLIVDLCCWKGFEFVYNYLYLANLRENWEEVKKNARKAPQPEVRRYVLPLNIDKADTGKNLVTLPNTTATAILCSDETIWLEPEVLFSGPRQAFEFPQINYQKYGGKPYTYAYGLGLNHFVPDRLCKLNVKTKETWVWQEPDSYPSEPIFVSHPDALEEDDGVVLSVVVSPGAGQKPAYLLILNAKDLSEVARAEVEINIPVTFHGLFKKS

Caco-2 cell monolayer = Caco-2 cell monolayer transport; assay type: in vitro ADME, human; details: 500 μM in PBS pH 6 on apical side, 37 °C, within 24 h; compared with Ret-NH2
[2] = 3.5 μmol per mouse oral gavage; for original drug in the eye / liver accumulation of N-retinylamides: 2 and 16 h; for N-retinylamides in the eye: 16 h
[3] = mouse, in vivo, po
Storage stability = assay type: physicochemical
RPE65 [4] = target: T1, RPE65 (Mus musculus, UniProt Q91ZQ5); assay: In vivo RPE65 inhibition; details: 1.75 μmol/mouse oral gavage 16 h before bleach 10 min at 7000 lx; 24 h in the dark
T1 sequence (Q91ZQ5 2-533): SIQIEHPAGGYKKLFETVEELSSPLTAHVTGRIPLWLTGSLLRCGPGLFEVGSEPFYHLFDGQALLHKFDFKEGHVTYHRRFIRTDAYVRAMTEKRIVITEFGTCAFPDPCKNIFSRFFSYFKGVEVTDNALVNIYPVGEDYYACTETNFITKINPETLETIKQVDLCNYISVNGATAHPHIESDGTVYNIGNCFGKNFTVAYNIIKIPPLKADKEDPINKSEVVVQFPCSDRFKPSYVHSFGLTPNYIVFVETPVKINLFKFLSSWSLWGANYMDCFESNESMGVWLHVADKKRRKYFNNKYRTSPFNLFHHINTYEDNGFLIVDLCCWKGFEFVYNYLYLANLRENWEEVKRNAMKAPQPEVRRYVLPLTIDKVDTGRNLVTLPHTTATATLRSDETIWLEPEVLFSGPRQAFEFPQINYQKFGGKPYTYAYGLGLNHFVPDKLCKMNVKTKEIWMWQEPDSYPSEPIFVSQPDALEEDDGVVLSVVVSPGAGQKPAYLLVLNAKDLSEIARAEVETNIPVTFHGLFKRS

RPE65 [5] = target: T2, RPE65 (Homo sapiens, UniProt Q16518); assay type: cell-based; details: NIH3T3 cells, 4.5 μM drug, 10 μM all-trans-retinol, 16 h
T2 sequence (Q16518 1-533): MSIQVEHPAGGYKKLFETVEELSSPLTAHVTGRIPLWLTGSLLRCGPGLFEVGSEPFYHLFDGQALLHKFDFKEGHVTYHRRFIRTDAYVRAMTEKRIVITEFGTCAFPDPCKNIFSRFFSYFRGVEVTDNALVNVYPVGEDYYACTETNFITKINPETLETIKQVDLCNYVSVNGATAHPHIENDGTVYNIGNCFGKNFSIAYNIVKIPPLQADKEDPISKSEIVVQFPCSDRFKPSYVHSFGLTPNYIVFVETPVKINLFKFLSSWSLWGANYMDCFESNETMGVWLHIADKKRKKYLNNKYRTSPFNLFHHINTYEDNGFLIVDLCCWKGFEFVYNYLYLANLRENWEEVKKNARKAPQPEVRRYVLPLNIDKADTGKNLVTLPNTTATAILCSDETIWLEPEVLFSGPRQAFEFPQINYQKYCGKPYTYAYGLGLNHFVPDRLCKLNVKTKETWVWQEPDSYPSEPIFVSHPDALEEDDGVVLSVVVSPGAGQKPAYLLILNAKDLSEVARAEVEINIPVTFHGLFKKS

[6] = cited from earlier work
[7] = tested on: light-induced retinal degeneration in Abca4^−/−Rdh8^−/− mice; assay: ERG scotopic a-waves after light-induced retinal degeneration; details: 1.9 μmol/mouse gastric gavage 16 h prior to light illumination; measured 7 days after drug administration and illumination
[8] = tested on: light-induced retinal degeneration in Abca4^−/−Rdh8^−/− mice; assay: Retinal histology; assay type: in vivo; details: drug before intense light exposure; 7 days after light exposure
[9] = tested on: retinal function of C57BL/6J WT mice; assay: ERG scotopic a-waves in wild-type mice after drug treatment; assay type: in vivo; details: 1.75 μmol per mouse gastric gavage 16 h prior to ERG

For `CC1=C(/C=C/C(C)=C/C=C/C(C)=C/CNC(=O)[C@@H](N)Cc2ccccc2)C(C)(C)CCC1` [RF], the “uptake by ARPE19 cells” value (ARPE19 cells) was “higher uptake”, the “inhibition of RPE65 activity (11-cis-retinol production)” value (“inhibition of RPE65 activity” for short) (RPE65 [1]) was “minor inhibitory effects” and the “transport through the Caco-2 monolayer” value (Caco-2 cell monolayer) was “significantly higher transport”. For the same molecule, the “original drug in the eye” value [2] was “detected only at 2 h” and the “N-retinylamides in the eye” value [2] was “comparable to that of Ret-NH2”.
With `CC1=C(/C=C/C(C)=C/C=C/C(C)=C/CNC(=O)[C@@H](N)C(C)C)C(C)(C)CCC1` [RV] the “N-retinylamides in the eye” value [3] was “no detectable N-retinylamides”, the “liver accumulation of N-retinylamides” value [3] was “lower liver accumulations of N-retinylamides than did RF and RL” and the “original drug in the eye” value [3] was “detected in the eyes at 2 and 16 h at relatively high concentrations”.
In the case of `CC1=C(/C=C/C(C)=C/C=C/C(C)=C/CN)C(C)(C)CCC1` [Ret-NH2, Retinylamine, reference compound], the decomposed on storage (Storage stability; desiccator under vacuum at room temperature, within 1 week) is reported as 95%, the “regeneration of 11-cis-retinal in the eye” value (RPE65 [4]) is reported as “much lower concentration of 11-cis-retinal than the untreated controls” and the 11-cis-retinol production (RPE65 [5]) is reported as “virtually ablated 11-cis-retinol production”. For the same molecule, the “inhibition of RPE65 activity” value (RPE65 [1]) was “concentration-dependent inhibition”, the “original drug in the eye” value [2] was “No Ret-NH2 was detected at 2 and 16 h in the eye” and the “N-retinylamide concentration in liver” value ([2]; 2 h) was “much higher liver concentrations”.
In the case of `Nc1nc2c(ncn2COCCO)c(=O)[nH]1` [acyclovir], the “oral bioavailability (Fo)” value ([6]; in vivo, po) is given as ~ 16%.
With Emixustat-L-Val-Gly amide [EVG] the “ERG activities (scotopic a-waves)” value [7] was “only slight decrease of ERG activities”.
For `CC1=C(/C=C/C(C)=C/C=C/C(C)=C/CNC(=O)[C@@H](N)CC(C)C)C(C)(C)CCC1` [RL], the “original drug in the eye” value [2] was “detected only at 2 h” and the “N-retinylamides in the eye” value [2] was “comparable to that of Ret-NH2”.
In the case of `CC1=C(/C=C/C(C)=C/C=C/C(C)=C/CNC(=O)CNC(=O)[C@@H](N)C(C)C)C(C)(C)CCC1` [RVG, Ret-NH2-L-valylglycine amide], the degradation on storage (Storage stability; stored in a desiccator under vacuum at room temperature for 2 months) is reported as “Less than 5%”, the “regeneration of 11-cis-retinal in the eye” value (RPE65 [4]) is reported as “greater regeneration of 11-cis-retinal” and the “retinal structure by histology (H&E)” value [8] is reported as “maintained an intact retinal structure”. The 11-cis-retinol production (RPE65 [5]) was “easily detected”, the “uptake by ARPE19 cells” value (ARPE19 cells) was “higher uptake” and the “inhibition of RPE65 activity” value (RPE65 [1]) was “did not affect significant inhibition; also recorded: no inhibitory effect”. For the same molecule, the “recovery of retinal function (ERG)” value [9] was “rapid recovery of retinal function”, the “transport through the Caco-2 monolayer” value (Caco-2 cell monolayer) was “significantly higher transport” and the “liver accumulation of N-retinylamides” value [2] was “lower liver accumulations of N-retinylamides than did RF and RL”. For the same molecule, the “original drug in the eye” value [2] was “detected only at 16 h” and the “N-retinylamides in the eye” value [2] was “no detectable N-retinylamides”.
In the case of `COc1ccc(OC)c(C(O)CN)c1` (stereo not drawn) [desglymidodrine], the oral bioavailability ([6]; desglymidodrine to midodrine) is given as 50%.
With `CC1=C(/C=C/C(C)=C/C=C/C(C)=C/CNC(=O)CN)C(C)(C)CCC1` [RG] the “liver accumulation of N-retinylamides” value [2] was “lower liver accumulations of N-retinylamides than did RF and RL”, the “original drug in the eye” value [2] was “detected in the eyes at 2 and 16 h at relatively high concentrations” and the “N-retinylamides in the eye” value [2] was “comparable to that of Ret-NH2”.
